Data taken from patent US12329799B2, “Peptidyl inhibitors of calcineurin-NFAT interaction” (Ohio State Innovation Foundation, priority 2018, dated 2025).
Positions of bridges follow the written chain, without caps; N, C: chain ends. Non-standard residues stand in square brackets, D forms with d. Residues, ends and D or L forms follow the SMILES beside them. Chains are numbered I, II in the order given. *: point of attachment. 2Nal = N[C@@H](Cc1ccc2ccccc2c1)C(=O)O; Val(3-OH) = CC(C)(O)[C@H](N)C(=O)O; Tle = CC(C)(C)[C@H](N)C(=O)O; X1 = O=C(c1ccnc(Cl)c1Cl)*; AEEA = NCCOCCOCC(=O)O

Columns and labels:
[1] = Stability in simulated gastric fluid (SGF); format: in vitro ADME
Experimental: (§1) Stability of CNI103 in simulated gastric fluid (SGF) was evaluated by diluting CNI103 (final 5 μM) in FaSSGF buffer (pH 1.2), which was prepared from FaSSGF powder (cat no. FFF01, BioRelavant). Similarly, stability of CNI103 in simulated intestinal fluid (SIF) was evaluated by diluting CNI103 (final 5 μM) in FaSSIF buffer (pH 6.5), which was prepared from FaSSIF powder (cat no. FFF-1017-B, BioRelavant) supplemented with Lecithin and maleic acid. The solutions were incubated at 37° C. for 5, 15, 30, 60, or 120 min, and the concentration of remaining CNI103 was determined by LC/MS/MS analysis as described above.

[2] = Stability in simulated intestinal fluid (SIF); format: in vitro ADME
Experimental: as §1

[3] = Caco-2 permeability assay; format: in vitro ADME; details: human, Caco-2, pH 7.4
Experimental: (§2) Caco-2 permeability assay. To assay the permeability of test compounds by Caco-2 cell model, Caco-2 cells were cultured to confluency before being trypsinized and seeded onto filter transwell inserts at a density of 30,000 cells/well in DMEM medium. Cells were cultured in a humidified atmosphere with 5% CO2 at 37° C. After overnight attachment, cell medium was replaced with fresh medium at both apical and basolateral sides every other day. The cell monolayers are ready for the assay 20 days post seeding. […] The dosing solution at 10 μM was obtained by diluting 10 mM stock solution in HBSS medium (pH 7.4, 25 mM HEPES) freshly before the assay. Terfenadine (25 ng/mL) and Tolbutamide (50 ng/mL) were added into dosing solution as internal standards. […] The culture medium from either the basolateral side (plate B) or apical side (plate A) were aspirated and then rinsed with HBSS medium once. Afterwards, the dosing medium was added to either basolateral or apical side. Following the incubation, 100 microliter samples from both sides were harvested at time 0 and time 90 min. Samples were quenched with acetonitrile/methanol (1:1 v/v), centrifuged, and analyzed on a Shimadzu reversed-phase HPLC and Sciex API4500 Q trap instrument.
(§3) Permeability parameters were calculated using the following equations and shown in Table 10: Papp=(Conc.receiver,90 min*Volumereceiver)/(Time*Membrane Area*Conc.donor,0 min) Efflux Ratio=Papp[B to A]/Papp[A to B]

[4] = system: Caco-2 cell monolayers; experiment: Caco-2 permeability assay; format: in vitro ADME
Experimental: as §2, §3

[5] = Stability in mouse hepatocytes; format: in vitro ADME
Experimental: (§4) Stability of CNI103 in mouse hepatocytes. Hepatocyte stability was assessed by using mouse hepatocyte (cat. M005052, BioIVT). Mouse hepatocytes were revived following manufacturer's procedure with Cryopreserved Hepatocyte Recovery Medium and used for the assay when cell viability was greater than 70%. Testing compound (at 2 μM) was mixed with mouse hepatocytes at 37° C. in a humidified incubator with 5% CO2. Final hepatocyte cell density was 2 million per mL. […] of the resulting supernatant was diluted two fold with distilled water and analyzed by reversed-phase HPLC coupled with Sciex 4500 Q-trap based quantification.

[6] = system: mouse hepatocytes; experiment: Stability in mouse hepatocytes; format: in vitro ADME; details: 2 μM
Experimental: as §4

[7] = in vitro; format: in vitro ADME; set-up: dose or concentration left out as unconfirmed; details: mouse
Experimental: Plasma binding was assessed using mouse plasma obtained from in-life studies. CNI103 was diluted to […] in pre-warmed mouse plasma. The solution was added to the left chamber of a commercial plate based RED (rapid equilibrium dialysis) device. Isotonic sodium phosphate buffer (100 mM sodium phosphate, 100 mM sodium chloride, pH 7.4) was added to the outer chamber of the RED device and the plate was incubated at 37° C. for five hours. Aliquots of the buffer and the plasma were withdrawn before and after the incubation and the concentrations of free and bound test compound were determined by LC/MS/MS analysis. To test for plasma stability, the dosing solution was also incubated at 37° C. for 5 hours and the concentration of CNI103 was determined by LC/MS/MS analysis as described above.
The calculation of percentage binding is calculated using the following equations and the results are presented in Table 13: Binding %=(Cpe−Cb)/Cpe×100 • Cpe=Conc. of test compound in plasma at equilibrium • Cb=Conc. of test compound in buffer at equilibrium % Stability of test compound=(Conc. of stability sample/Conc. of time zero sample)×100 % Recovery=(Cpe+Cb)/Conc. of stability sample×100

[8] = system: HCT116 cell spheroids; experiment: Cellular entry and intracellular stability by MALDI-TOF MS imaging; format: cell-based; details: 5 μM, 24 h of incubation
Experimental: Intracellular Stability. HCT116 cell spheroids in RPMI-1640 medium supplemented with 10% FBS and 1% penicillin/streptomycin were treated with 5 μM CNI103 for 4 or 24 h. Spheroids were washed three times with warm DPBS, quickly frozen, embedded in a solid support and cryo-sectioned. Prior to analysis, sinapinic acid was sublimed onto individual slides, which were subsequently imaged using a Bruker ultrafleXtreme MALDI-TOF-TOF mass spectrometer. The spectra were analyzed for intact CNI103 as well as proteolytic degradation fragments of interest. The MS signal intensity data were used to generate Heatmaps, scaled relative to the most intense signal, for each time point and fragment.

[9] = Liver microsome stability assay; format: in vitro ADME; details: mouse liver microsome
Experimental: Liver microsome stability assay. Liver microsome stability was assessed using mouse microsome (cat. M1000, XenoTech). Ten mM stock solution of CNI103 was similarly prepared in DMSO. One hundred micromolar of CNI103 solution was prepared by diluting the DMSO stock in phosphate buffer (50 mM potassium phosphate, pH 7.4). To assay the stability, liver microsomes (final concentration 0.5 mg/mL) were mixed with testing samples gently and incubated at 37° C. for 5 min. At varying time points post reaction (0, 5, 15, 30, and 60 min), 25 microliter aliquots were withdrawn and each aliquot (25 microliter) was quenched with 300 μL of an internal standard solution (25 ng/mL terfenadine in 1:1 v/v methanol/acetonitrile) followed by vigorous vortexing and centrifugation. To assess metabolism by P450 enzymes, the microsome degradation reaction was supplemented with NADPH (final 1 mM) followed by gentle mixing. 100 μL aliquots of the reaction mixture were withdrawn at 0, 30, or 60 min, diluted two fold with distilled water, and subjected to LC-MS/MS analysis on a reversed-phase HPLC coupled with Sciex 4500 Q-trap based quantification.

In the case of `CC[C@H](C)[C@H](NC(=O)[C@@H](NC(=O)c1ccnc(Cl)c1Cl)C(C)(C)C)C(=O)N[C@H](C(=O)N[C@H](C(=O)N[C@H](C(=O)N[C@@H](CCC(N)=O)C(=O)N[C@@H](Cc1c[nH]cn1)C(=O)N[C@H](CC(C)C)C(=O)N[C@@H](CO)C(=O)NCCOCCOCC(=O)N[C@@H](CCCCNC(=O)CC[C@@H]1NC(=O)[C@@H](CCCNC(=N)N)NC(=O)[C@H](CCCNC(=N)N)NC(=O)[C@@H](CCCNC(=N)N)NC(=O)[C@H](CCCNC(=N)N)NC(=O)[C@H](Cc2ccc3ccccc3c2)NC(=O)[C@@H](Cc2ccccc2)NC1=O)C(N)=O)[C@@H](C)O)[C@@H](C)CC)C(C)(C)O` [CNI103, (DCNA)-Tle-Ile-Bhv-Ile-Thr-Gln-His-(D-Leu)-Ser-miniPEG-Lys{[cyclo-(Gln-(D-Arg)-Arg-(D-Arg)-Arg-(2-Nal)-(D-Phe)]}-NH2] (I: X1-[Tle]I[Val(3-OH)]ITQH[dL]S[AEEA]K-NH2 / II: cyclo([2Nal]R[dR]R[dR]E[dF]); amide I:11-II:6 (inferred); ring closure inferred), the “% remaining” value ([1]; SGF (FaSSGF, pH 1.2), 37° C., 0 min, n = 2) is reported as 100.00%, the remaining at 5 min, 5 μM ([1]; simulated gastric fluid (FaSSGF), pH 1.2, SGF, 5 min) is reported as 93.7% and the remaining at 0.25 h, 5 μM ([1]; simulated gastric fluid (FaSSGF), pH 1.2, SGF, 15 min) is reported as 87.4%. It also gave a remaining at 0.5 h, 5 μM ([1]; simulated gastric fluid (FaSSGF), pH 1.2, SGF, 30 min) of 88.3%, a remaining at 1 h, 5 μM ([1]; simulated gastric fluid (FaSSGF), pH 1.2, SGF, 60 min) of 106% and a remaining at 2 h, 5 μM ([1]; simulated gastric fluid (FaSSGF), pH 1.2, SGF, 120 min) of 103%. For the same compound, the “% remaining” value ([2]; SIF (FaSSIF, pH 6.5), 37° C., 0 min, n = 2) was 100.00%, the remaining at 5 min, 5 μM ([2]; simulated intestinal fluid (FaSSIF), pH 6.5, SIF, 5 min) was 92.3% and the remaining at 0.25 h, 5 μM ([2]; simulated intestinal fluid (FaSSIF), pH 6.5, SIF, 15 min) was 109%. For the same compound, the remaining at 0.5 h, 5 μM ([2]; simulated intestinal fluid (FaSSIF), pH 6.5, SIF, 30 min) was 109%, the remaining at 1 h, 5 μM ([2]; simulated intestinal fluid (FaSSIF), pH 6.5, SIF, 60 min) was 95.9% and the remaining at 2 h, 5 μM ([2]; simulated intestinal fluid (FaSSIF), pH 6.5, SIF, 120 min) was 75.6%. It also gave a Papp A→B at 90 min, 10 μM ([3]; N = 2, 10 μM, 90 min) of 7.5 ×10⁻⁶ cm/s, a Papp B→A at 90 min, 10 μM ([3]; N = 2, 10 μM, 90 min) of 2.1 ×10⁻⁶ cm/s and an efflux ratio at 90 min, 10 μM ([3]; Papp[B to A]/Papp[A to B]) of 0.3. For the same compound, the “Pgp Substrate” value [4] was “No”, the remaining at 0.25 h, 2 μM ([5]; 15 min) was 103% and the remaining at 0.5 h, 2 μM ([5]; 30 min) was 101%. For the same compound, the remaining at 1 h, 2 μM ([5]; 60 min) was 120%, the “% remaining” value ([6]; 0 min) was 100.00% and the “% remaining” value ([6]; 90 min) was 141.77%. For the same compound, the “% remaining” value ([6]; 120 min) was 124.89%, the recovery at 5 hours ([7]; pH 7.4) was 130% and the remaining at 5 h ([7]; plasma) was 110%. For the same compound, the fraction unbound at 5 h ([7]; plasma, pH 7.4) was 0.024, the intracellular degradation [8] was “No significant degradation product signal” and the remaining at 0.25 h ([9]; liver microsomes, pH 7.4, 15 min, read-out: % remaining (+NADPH)) was 95.8%. The remaining at 0.5 h ([9]; liver microsomes, pH 7.4, 30 min, read-out: % remaining (+NADPH)) was 76%, the remaining at 1 h ([9]; liver microsomes, pH 7.4, 60 min, read-out: % remaining (+NADPH)) was 75.1% and the “% remaining (+NADPH)” value ([9]; 0 min) was 100.0%. The “% remaining (−NADPH)” value ([9]; 0 min) was 100.0%, the “% remaining (+NADPH)” value ([9]; 5 min) was 131.1% and the “% remaining (−NADPH)” value ([9]; 30 min) was 113.6%. The “% remaining (−NADPH)” value ([9]; 60 min) was 70.8%.
